{"source": "patent US20260232674A1", "about": "“METHODS OF TREATING HIDRADENITIS SUPPURATIVA” (Alumis Inc., priority 2023, published 2026)", "key": {"IFN1 gene expression": {"test_system": "IFN1 gene expression", "assay": "IFN gene set expression (RNA-sequencing) in healthy volunteers, Compound A versus placebo, day 14", "format": "in vivo", "protocol": "(§1) A study was conducted to assess IFN1 gene expression in healthy volunteers administered a regimen of Compound A. The data set consists of 48 subjects with transcriptome-wide RNA-sequencing data collected for each subject per time-point. For each subject, time points included a pre-dose at day 1, a pre-dose at day 14, and a 4 hour post-day 14 dose. A Wald test was used to assess the association of the various doses at post-dose day 14 versus placebo. To assess potentially off target effects, a secondary transcriptome-wide analysis was performed. Multiple test correction was completed using a Benjamini-Hochberg cutoff of 0.05 within the primary and secondary analyses separately.\nFor example FIG. 4 and FIG. 5 show dose-dependent median IFN gene expression levels over time for HERC5, IFI27, IFIT1, RSAD2. […] As shown in FIG. 6 and FIG. 7, SIGLEC1 was decreased after a 14-day regimen of treatment with Compound A."}, "[1]": {"assay": "IFN gene expression in healthy volunteers after 7 days 40 mg Compound A twice daily versus placebo", "format": "in vivo", "conditions": "gene CETP, 40 mg twice daily, versus placebo, healthy volunteers", "protocol": "as §1, with “[…] […]” for “For each subject, time points included a pre-dose at day 1, a pre-dose at day 14, and a 4 hour post-day 14 dose. A Wald test was used to assess the association of the various doses at post-dose day 14 versus placebo.”"}, "IFN gene expression": {"test_system": "IFN gene expression", "assay": "IFN gene expression in healthy volunteers after 7 days 40 mg Compound A twice daily versus placebo", "format": "in vivo", "protocol": "as §1, with “[…] […]” for “For each subject, time points included a pre-dose at day 1, a pre-dose at day 14, and a 4 hour post-day 14 dose. A Wald test was used to assess the association of the various doses at post-dose day 14 versus placebo.”"}, "[2]": {"test_system": "transcriptome-wide gene expression", "assay": "Secondary transcriptome-wide analysis for potentially off target effects, day 14 4 hour post-treatment versus placebo", "format": "in vivo, healthy volunteers", "protocol": "as §1"}}, "data": [{"molecule": "[2H]C([2H])([2H])CC(=O)c1cnc(NC(=O)C2CC2)cc1Nc1cccc(-c2ncn(C([2H])([2H])[2H])n2)c1OC", "note": "[Compound A, N-(4-((2-Methoxy-3-(1-(methyl-d3)-1H-1,2,4-triazol-3-yl)phenyl)amino)-5-(propanoyl-3,3,3-d3)pyridin-2-yl)cyclopropanecarboxamide]", "values": [{"measurement": "association of Compound A with SIGLEC1 gene expression (Wald test)", "setting": "IFN1 gene expression; after 14 days of treatment versus placebo, Table 2", "value": "significant association"}, {"measurement": "median IFN gene expression levels for HERC5, IFI27, IFIT1, RSAD2", "setting": "IFN1 gene expression; after 14 days, versus placebo, FIG. 4 and FIG. 5, healthy volunteers", "value": "substantial decrease"}, {"measurement": "median gene expression levels for SIGLEC1", "setting": "IFN1 gene expression; after a 14-day regimen, versus placebo, FIG. 6 and FIG. 7, healthy volunteers", "value": "decreased"}, {"measurement": "log2FoldChange CXCL10", "setting": "IFN1 gene expression; gene CXCL10, after 14 days of treatment versus placebo, healthy volunteers", "value": "−1.589"}, {"measurement": "log2FoldChange EPSTI1", "setting": "IFN1 gene expression; gene EPSTI1, after 14 days of treatment versus placebo, healthy volunteers", "value": "−0.2266"}, {"measurement": "log2FoldChange IFI27", "setting": "IFN1 gene expression; gene IFI27, after 14 days of treatment versus placebo, healthy volunteers", "value": "−1.082"}, {"measurement": "log2FoldChange IFI44", "setting": "IFN1 gene expression; gene IFI44, after 14 days of treatment versus placebo, healthy volunteers", "value": "−0.3773"}, {"measurement": "log2FoldChange IFI44L", "setting": "IFN1 gene expression; gene IFI44L, after 14 days of treatment versus placebo, healthy volunteers", "value": "−1.043"}, {"measurement": "log2FoldChange IFIT1", "setting": "IFN1 gene expression; gene IFIT1, after 14 days of treatment versus placebo, healthy volunteers", "value": "−1.676"}, {"measurement": "log2FoldChange ISG15", "setting": "IFN1 gene expression; gene ISG15, after 14 days of treatment versus placebo, healthy volunteers", "value": "−0.8721"}, {"measurement": "log2FoldChange ISG20", "setting": "IFN1 gene expression; gene ISG20, after 14 days of treatment versus placebo, healthy volunteers", "value": 0.08851}, {"measurement": "log2FoldChange MX1", "setting": "IFN1 gene expression; gene MX1, after 14 days of treatment versus placebo, healthy volunteers", "value": "−1.438"}, {"measurement": "log2FoldChange OAS1", "setting": "IFN1 gene expression; gene OAS1, after 14 days of treatment versus placebo, healthy volunteers", "value": "−0.1127"}, {"measurement": "log2FoldChange OAS2", "setting": "IFN1 gene expression; gene OAS2, after 14 days of treatment versus placebo, healthy volunteers", "value": "−0.008935"}, {"measurement": "log2FoldChange OAS3", "setting": "IFN1 gene expression; gene OAS3, after 14 days of treatment versus placebo, healthy volunteers", "value": "−0.7134"}, {"measurement": "log2FoldChange RSAD2", "setting": "IFN1 gene expression; gene RSAD2, after 14 days of treatment versus placebo, healthy volunteers", "value": "−0.4713"}, {"measurement": "log2FoldChange SIGLEC1", "setting": "IFN1 gene expression; gene SIGLEC1, after 14 days of treatment versus placebo, healthy volunteers", "value": "−3.579"}, {"measurement": "log2FoldChange SPATS2L", "setting": "IFN1 gene expression; gene SPATS2L, after 14 days of treatment versus placebo, healthy volunteers", "value": "−0.5117"}, {"measurement": "log2FoldChange CETP", "setting": "[1]", "value": 1.503}, {"measurement": "rank of SIGLEC1 among differentially expressed genes, treated versus placebo", "setting": "IFN gene expression; 40 mg twice daily, Table 3", "value": "top differentially expressed gene"}, {"measurement": "log2FoldChange CHRM3", "setting": "IFN gene expression; gene CHRM3, 40 mg twice daily, versus placebo, healthy volunteers", "value": "−1.521"}, {"measurement": "log2FoldChange HJURP", "setting": "IFN gene expression; gene HJURP, 40 mg twice daily, versus placebo, healthy volunteers", "value": 1.007}, {"measurement": "log2FoldChange OSM", "setting": "IFN gene expression; gene OSM, 40 mg twice daily, versus placebo, healthy volunteers", "value": 1.157}, {"measurement": "log2FoldChange SIGLEC1", "setting": "IFN gene expression; gene SIGLEC1, 40 mg twice daily, versus placebo, healthy volunteers", "value": "−3.626"}, {"measurement": "log2FoldChange SOCS3", "setting": "IFN gene expression; gene SOCS3, 40 mg twice daily, versus placebo, healthy volunteers", "value": 1.421}, {"measurement": "log2FoldChange SYN2", "setting": "IFN gene expression; gene SYN2, 40 mg twice daily, versus placebo, healthy volunteers", "value": 2.239}, {"measurement": "log2FoldChange CDNF", "setting": "[2]; gene CDNF, secondary analysis", "value": 1.185}, {"measurement": "log2FoldChange ENSG00000288643", "setting": "[2]; gene ENSG00000288643, secondary analysis", "value": "−1.541"}, {"measurement": "log2FoldChange IFI6", "setting": "[2]; gene IFI6, secondary analysis", "value": "−1.206"}, {"measurement": "log2FoldChange IFIT1", "setting": "[2]; gene IFIT1, secondary analysis", "value": "−1.676"}, {"measurement": "log2FoldChange JPH4", "setting": "[2]; gene JPH4, secondary analysis", "value": "−1.043"}, {"measurement": "log2FoldChange LRP1", "setting": "[2]; gene LRP1, secondary analysis", "value": "−1.314"}, {"measurement": "log2FoldChange LRRC75B", "setting": "[2]; gene LRRC75B, secondary analysis", "value": "−1.205"}, {"measurement": "log2FoldChange MX1", "setting": "[2]; gene MX1, secondary analysis", "value": "−1.438"}, {"measurement": "log2FoldChange SIGLEC1", "setting": "[2]; gene SIGLEC1, secondary analysis", "value": "−3.579"}, {"measurement": "off target associations after multiple test corrections", "setting": "[2]; transcriptome-wide, Table 4", "value": "no significant off target associations"}]}]}
